In ChEMBL document CHEMBL4725218, “Deep Learning Enhancing Kinome-Wide Polypharmacology Profiling: Model Construction and Experiment Validation” (J Med Chem, 2020):

Assays:
[1] = target: Vascular endothelial growth factor receptor 2 (Homo sapiens) (UniProt P35968); experiment: Inhibition of human VEGFR2 assessed as remaining enzyme activity at 0.1 uM
[2] = target: T1, Homeodomain-interacting protein kinase 4 (Homo sapiens) (UniProt Q8NE63); experiment: Inhibition of human HIPK4 assessed as remaining enzyme activity at 0.1 uM
T1 sequence (whole entry): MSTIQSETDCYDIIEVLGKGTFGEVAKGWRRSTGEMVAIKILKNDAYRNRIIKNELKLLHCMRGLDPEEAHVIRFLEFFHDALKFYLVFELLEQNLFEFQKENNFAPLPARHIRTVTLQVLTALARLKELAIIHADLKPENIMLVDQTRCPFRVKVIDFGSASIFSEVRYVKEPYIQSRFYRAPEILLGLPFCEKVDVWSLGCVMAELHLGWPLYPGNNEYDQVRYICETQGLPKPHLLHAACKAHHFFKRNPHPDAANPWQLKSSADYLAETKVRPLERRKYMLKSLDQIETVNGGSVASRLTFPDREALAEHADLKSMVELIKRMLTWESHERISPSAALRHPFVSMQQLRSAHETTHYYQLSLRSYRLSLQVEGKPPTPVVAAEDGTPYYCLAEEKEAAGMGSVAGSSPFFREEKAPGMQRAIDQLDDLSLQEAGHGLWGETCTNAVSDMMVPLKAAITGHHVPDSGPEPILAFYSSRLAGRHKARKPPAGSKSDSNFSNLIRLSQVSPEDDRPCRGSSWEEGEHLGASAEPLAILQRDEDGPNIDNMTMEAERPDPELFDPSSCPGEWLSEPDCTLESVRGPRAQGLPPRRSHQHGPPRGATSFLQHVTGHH

[3] = target: MAP kinase-interacting serine/threonine-protein kinase 2 (Homo sapiens) (UniProt Q9HBH9); experiment: Inhibition of human MNK2 assessed as remaining enzyme activity at 1 uM
[4] = target: Ephrin type-A receptor 2 (Homo sapiens) (UniProt P29317); experiment: Inhibition of human EphA2 assessed as remaining enzyme activity at 0.1 uM
[5] = target: RAF proto-oncogene serine/threonine-protein kinase (Homo sapiens) (UniProt P04049); experiment: Inhibition of human RAF1 assessed as remaining enzyme activity at 1 uM
[6] = target: NT-3 growth factor receptor (Homo sapiens) (UniProt Q16288); experiment: Inhibition of human TRKC assessed as remaining enzyme activity at 0.01 uM
[7] = target: Macrophage colony-stimulating factor 1 receptor (Homo sapiens) (UniProt P07333); experiment: Inhibition of human FMS assessed as remaining enzyme activity at 0.01 uM
[8] = target: Epithelial discoidin domain-containing receptor 1 (Homo sapiens) (UniProt Q08345); experiment: Inhibition of human DDR1 assessed as remaining enzyme activity at 1 uM
[9] = target: RAF proto-oncogene serine/threonine-protein kinase (Homo sapiens) (UniProt P04049); experiment: Inhibition of human C-Raf assessed as remaining enzyme activity at 0.01 uM
[10] = target: Tyrosine-protein kinase ABL1 (Homo sapiens) (UniProt P00519); experiment: Inhibition of human ABL assessed as remaining enzyme activity at 1 uM
[11] = target: T1, Homeodomain-interacting protein kinase 4 (Homo sapiens); experiment: Inhibition of human HIPK4 assessed as remaining enzyme activity at 1 uM
[12] = target: Tyrosine-protein kinase ABL1 (Mus musculus) (UniProt P00520); experiment: Inhibition of mouse Abl assessed as remaining enzyme activity at 1 uM
[13] = target: Tyrosine-protein kinase Blk (Mus musculus) (UniProt P16277); experiment: Inhibition of mouse BLK assessed as remaining enzyme activity at 0.1 uM
[14] = target: Homeodomain-interacting protein kinase 3 (Homo sapiens) (UniProt Q9H422); experiment: Inhibition of human HIPK3 assessed as remaining enzyme activity at 0.1 uM
[15] = target: Tyrosine-protein kinase Lyn (Homo sapiens) (UniProt P07948); experiment: Inhibition of human LYN assessed as remaining enzyme activity at 0.1 uM
[16] = target: Mitogen-activated protein kinase kinase kinase 20 (Homo sapiens) (UniProt Q9NYL2); experiment: Inhibition of human ZAK assessed as remaining enzyme activity at 1 uM
[17] = target: Platelet-derived growth factor receptor beta (Homo sapiens) (UniProt P09619); experiment: Inhibition of human PDGFRbeta assessed as remaining enzyme activity at 1 uM
[18] = target: Vascular endothelial growth factor receptor 1 (Homo sapiens) (UniProt P17948); experiment: Inhibition of human VEGFR1 assessed as remaining enzyme activity at 1 uM
[19] = target: T1, Homeodomain-interacting protein kinase 4 (Homo sapiens); experiment: Inhibition of human HIPK4 assessed as remaining enzyme activity at 0.01 uM
[20] = target: T2, Muscle, skeletal receptor tyrosine-protein kinase (Homo sapiens) (UniProt O15146); experiment: Inhibition of human MuSK assessed as remaining enzyme activity at 0.01 uM
T2 sequence (whole entry): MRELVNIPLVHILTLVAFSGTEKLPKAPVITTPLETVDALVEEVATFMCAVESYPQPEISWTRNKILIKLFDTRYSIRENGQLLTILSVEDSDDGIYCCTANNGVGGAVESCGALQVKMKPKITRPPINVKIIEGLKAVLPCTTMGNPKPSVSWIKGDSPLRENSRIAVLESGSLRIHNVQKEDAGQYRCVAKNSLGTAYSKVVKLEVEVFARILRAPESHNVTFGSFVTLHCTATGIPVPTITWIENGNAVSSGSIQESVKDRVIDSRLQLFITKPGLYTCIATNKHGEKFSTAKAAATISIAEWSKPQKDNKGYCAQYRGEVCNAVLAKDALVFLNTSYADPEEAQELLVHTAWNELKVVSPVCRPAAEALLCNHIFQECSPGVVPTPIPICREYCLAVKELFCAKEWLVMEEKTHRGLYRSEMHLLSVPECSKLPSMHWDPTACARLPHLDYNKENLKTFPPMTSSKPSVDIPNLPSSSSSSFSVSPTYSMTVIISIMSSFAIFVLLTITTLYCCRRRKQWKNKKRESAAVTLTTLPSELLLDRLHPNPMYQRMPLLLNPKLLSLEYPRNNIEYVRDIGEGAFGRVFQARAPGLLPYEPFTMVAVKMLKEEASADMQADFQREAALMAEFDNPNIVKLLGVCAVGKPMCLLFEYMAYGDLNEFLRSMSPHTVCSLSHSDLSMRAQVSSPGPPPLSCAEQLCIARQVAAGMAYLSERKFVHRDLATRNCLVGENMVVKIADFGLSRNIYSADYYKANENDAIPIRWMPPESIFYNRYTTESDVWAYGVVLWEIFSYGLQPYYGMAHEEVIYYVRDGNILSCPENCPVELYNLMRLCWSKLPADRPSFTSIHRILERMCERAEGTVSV

[21] = target: Mitogen-activated protein kinase kinase kinase 20 (Homo sapiens) (UniProt Q9NYL2); experiment: Inhibition of human ZAK assessed as remaining enzyme activity at 0.1 uM
[22] = target: Tyrosine-protein kinase Blk (Mus musculus) (UniProt P16277); experiment: Inhibition of mouse BLK assessed as remaining enzyme activity at 1 uM
[23] = target: Epithelial discoidin domain-containing receptor 1 (Homo sapiens) (UniProt Q08345); experiment: Inhibition of human DDR1 assessed as remaining enzyme activity at 0.01 uM
[24] = target: Epithelial discoidin domain-containing receptor 1 (Homo sapiens) (UniProt Q08345); experiment: Inhibition of human DDR1 assessed as remaining enzyme activity at 0.1 uM
[25] = target: Mast/stem cell growth factor receptor Kit (Homo sapiens) (UniProt P10721); experiment: Inhibition of human c-Kit assessed as remaining enzyme activity at 1 uM
Chain of Mast/stem cell growth factor receptor Kit (Homo sapiens) (P10721 whole entry): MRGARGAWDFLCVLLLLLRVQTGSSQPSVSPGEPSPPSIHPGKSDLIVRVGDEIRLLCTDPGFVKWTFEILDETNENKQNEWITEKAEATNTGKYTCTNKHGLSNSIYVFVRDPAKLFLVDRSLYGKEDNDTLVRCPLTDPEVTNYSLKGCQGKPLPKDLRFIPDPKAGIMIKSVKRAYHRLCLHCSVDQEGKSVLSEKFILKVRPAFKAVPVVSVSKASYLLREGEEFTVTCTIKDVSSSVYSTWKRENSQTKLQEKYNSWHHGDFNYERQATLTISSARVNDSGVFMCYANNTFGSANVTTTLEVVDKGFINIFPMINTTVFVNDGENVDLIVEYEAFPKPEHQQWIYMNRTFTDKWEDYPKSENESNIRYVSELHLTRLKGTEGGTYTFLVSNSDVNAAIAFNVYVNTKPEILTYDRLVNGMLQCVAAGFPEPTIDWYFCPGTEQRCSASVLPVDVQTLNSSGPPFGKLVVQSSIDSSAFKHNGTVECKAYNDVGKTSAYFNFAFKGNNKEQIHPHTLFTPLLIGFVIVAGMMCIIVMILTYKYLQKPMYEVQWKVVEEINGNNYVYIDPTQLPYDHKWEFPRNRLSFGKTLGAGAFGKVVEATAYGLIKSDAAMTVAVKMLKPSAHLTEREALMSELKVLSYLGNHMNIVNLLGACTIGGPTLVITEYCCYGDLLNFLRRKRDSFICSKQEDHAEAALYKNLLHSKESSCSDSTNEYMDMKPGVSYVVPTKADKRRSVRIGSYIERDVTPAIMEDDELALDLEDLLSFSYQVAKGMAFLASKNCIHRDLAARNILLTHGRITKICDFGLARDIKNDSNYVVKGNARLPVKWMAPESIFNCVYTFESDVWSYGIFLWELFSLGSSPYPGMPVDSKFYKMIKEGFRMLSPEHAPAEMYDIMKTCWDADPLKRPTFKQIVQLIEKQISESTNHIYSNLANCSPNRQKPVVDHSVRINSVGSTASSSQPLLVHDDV

Chain of Epithelial discoidin domain-containing receptor 1 (Homo sapiens) (Q08345 whole entry, the tested form may be a part): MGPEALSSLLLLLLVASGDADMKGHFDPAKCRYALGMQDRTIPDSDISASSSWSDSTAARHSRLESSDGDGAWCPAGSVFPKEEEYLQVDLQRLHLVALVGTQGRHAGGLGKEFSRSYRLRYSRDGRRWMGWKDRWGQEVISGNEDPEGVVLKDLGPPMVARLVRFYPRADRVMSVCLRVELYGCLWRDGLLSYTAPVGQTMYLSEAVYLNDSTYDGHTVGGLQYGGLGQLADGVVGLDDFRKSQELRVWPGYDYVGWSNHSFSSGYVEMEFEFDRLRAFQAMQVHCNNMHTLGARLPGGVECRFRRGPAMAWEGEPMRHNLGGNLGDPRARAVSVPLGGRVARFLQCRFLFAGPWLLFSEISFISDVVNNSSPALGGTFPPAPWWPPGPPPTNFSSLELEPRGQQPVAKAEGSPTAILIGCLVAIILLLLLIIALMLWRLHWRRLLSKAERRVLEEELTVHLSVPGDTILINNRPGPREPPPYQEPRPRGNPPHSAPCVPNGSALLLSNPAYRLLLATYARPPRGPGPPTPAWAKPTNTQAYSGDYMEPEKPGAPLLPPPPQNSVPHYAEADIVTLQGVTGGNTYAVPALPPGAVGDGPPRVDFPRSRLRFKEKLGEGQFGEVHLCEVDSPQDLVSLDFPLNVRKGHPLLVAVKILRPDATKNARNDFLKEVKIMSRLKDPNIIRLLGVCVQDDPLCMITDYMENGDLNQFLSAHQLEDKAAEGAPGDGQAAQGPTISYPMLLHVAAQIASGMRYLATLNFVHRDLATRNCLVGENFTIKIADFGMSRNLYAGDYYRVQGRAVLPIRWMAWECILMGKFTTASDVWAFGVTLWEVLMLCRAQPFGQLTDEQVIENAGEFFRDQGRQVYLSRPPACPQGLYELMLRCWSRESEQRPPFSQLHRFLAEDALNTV
Chain of Tyrosine-protein kinase Blk (Mus musculus) (P16277 whole entry, the tested form may be a part): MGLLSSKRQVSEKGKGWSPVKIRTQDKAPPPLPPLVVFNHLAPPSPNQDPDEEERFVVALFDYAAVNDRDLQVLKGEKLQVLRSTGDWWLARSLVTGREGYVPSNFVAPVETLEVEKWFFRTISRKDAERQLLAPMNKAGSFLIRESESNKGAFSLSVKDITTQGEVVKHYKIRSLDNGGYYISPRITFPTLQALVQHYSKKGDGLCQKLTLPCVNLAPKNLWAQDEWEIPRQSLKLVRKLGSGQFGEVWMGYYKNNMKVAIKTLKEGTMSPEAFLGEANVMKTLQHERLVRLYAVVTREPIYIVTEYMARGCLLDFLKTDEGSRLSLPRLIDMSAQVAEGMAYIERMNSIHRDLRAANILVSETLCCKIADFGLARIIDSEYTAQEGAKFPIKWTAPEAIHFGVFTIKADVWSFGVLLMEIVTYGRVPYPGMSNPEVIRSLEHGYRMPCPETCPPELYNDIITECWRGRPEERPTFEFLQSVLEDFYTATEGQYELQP
Chain of RAF proto-oncogene serine/threonine-protein kinase (Homo sapiens) (P04049 whole entry): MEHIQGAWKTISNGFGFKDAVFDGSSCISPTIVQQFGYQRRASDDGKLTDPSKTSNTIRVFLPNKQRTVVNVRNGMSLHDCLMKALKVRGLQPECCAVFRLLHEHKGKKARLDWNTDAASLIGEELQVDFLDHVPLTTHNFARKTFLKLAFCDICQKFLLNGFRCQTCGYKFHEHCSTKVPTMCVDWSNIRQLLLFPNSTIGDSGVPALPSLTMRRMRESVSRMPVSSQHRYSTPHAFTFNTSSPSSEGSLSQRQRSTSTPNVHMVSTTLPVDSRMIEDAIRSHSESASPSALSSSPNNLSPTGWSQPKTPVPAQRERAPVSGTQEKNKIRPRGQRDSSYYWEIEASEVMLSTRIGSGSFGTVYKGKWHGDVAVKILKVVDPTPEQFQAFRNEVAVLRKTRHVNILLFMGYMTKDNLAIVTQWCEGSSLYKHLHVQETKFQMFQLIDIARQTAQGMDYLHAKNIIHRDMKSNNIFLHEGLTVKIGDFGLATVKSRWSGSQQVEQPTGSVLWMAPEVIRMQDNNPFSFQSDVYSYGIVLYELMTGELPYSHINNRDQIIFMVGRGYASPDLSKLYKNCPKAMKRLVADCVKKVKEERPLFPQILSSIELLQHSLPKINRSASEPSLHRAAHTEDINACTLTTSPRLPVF
Chain of Mitogen-activated protein kinase kinase kinase 20 (Homo sapiens) (Q9NYL2 2-800 limits assumed): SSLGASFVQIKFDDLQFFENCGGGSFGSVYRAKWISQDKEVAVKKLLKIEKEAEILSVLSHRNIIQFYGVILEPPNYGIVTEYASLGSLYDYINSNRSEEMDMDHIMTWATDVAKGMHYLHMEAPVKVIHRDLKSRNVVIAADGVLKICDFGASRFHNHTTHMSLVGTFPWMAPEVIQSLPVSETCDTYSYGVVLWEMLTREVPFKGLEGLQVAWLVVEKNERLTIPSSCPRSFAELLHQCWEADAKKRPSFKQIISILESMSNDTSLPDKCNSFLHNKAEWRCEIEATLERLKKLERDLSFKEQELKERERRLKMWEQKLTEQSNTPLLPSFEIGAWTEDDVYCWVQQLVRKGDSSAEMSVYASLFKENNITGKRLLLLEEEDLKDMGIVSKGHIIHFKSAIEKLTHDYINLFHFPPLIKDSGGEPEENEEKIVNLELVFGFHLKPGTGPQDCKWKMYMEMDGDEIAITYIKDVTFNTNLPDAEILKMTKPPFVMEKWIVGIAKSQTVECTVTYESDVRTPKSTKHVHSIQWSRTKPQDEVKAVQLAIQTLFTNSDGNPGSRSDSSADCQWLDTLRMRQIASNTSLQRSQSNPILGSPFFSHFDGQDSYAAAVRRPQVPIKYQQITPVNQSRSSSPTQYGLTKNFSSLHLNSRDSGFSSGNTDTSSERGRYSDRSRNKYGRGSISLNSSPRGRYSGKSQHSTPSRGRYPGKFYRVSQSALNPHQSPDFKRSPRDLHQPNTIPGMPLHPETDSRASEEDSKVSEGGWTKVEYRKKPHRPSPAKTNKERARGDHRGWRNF
Chain of NT-3 growth factor receptor (Homo sapiens) (Q16288 32-839 limits assumed): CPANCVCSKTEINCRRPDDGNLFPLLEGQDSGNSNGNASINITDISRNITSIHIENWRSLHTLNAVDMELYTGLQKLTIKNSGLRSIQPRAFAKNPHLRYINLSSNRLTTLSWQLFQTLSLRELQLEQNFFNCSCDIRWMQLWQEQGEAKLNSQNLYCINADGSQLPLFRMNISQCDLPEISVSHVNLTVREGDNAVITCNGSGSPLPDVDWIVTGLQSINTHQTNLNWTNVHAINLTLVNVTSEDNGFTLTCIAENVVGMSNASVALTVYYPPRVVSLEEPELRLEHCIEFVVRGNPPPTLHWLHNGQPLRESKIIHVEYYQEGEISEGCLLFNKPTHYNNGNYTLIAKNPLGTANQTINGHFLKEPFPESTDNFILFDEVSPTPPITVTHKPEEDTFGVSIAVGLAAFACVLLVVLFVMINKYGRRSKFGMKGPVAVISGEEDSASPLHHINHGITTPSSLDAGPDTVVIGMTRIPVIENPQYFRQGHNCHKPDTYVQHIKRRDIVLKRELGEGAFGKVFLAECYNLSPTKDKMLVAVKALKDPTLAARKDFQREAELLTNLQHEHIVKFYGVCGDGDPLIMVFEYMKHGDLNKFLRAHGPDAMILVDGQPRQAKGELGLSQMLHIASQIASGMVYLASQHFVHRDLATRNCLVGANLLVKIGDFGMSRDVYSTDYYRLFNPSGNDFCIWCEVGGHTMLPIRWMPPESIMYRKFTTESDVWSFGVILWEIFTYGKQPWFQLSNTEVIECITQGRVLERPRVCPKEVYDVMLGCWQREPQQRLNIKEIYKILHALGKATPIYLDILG

Activity [1]: 19%
Activity [2]: 3%
Activity [3]: 34%
Activity [4]: 58%
Activity [5]: 8%
Activity [6]: 54%
Activity [7]: 73%
Activity [8]: 11%
Activity [9]: 93%
Activity [10]: 8%
Activity [11]: -1%
Activity [12]: -1%
Activity [13]: 45%
Activity [14]: 68%
Activity [15]: 21%
Activity [16]: -1%
Activity [17]: 55%
Activity [18]: 3%
Activity [19]: 31%
Activity [20]: 89%
Activity [21]: 2%
Activity [22]: 1%
Activity [23]: 92%
Activity [24]: 43%
Activity [25]: -1%
SMILES: CNC(=O)c1cc(Oc2ccc(NC(=O)Nc3ccc(Cl)c(C(F)(F)F)c3)c(F)c2)ccn1
